In the supplement of paper PMC11451515:

Test system: P12-Ichikawa
Test: cell viability relative to DMSO control; higher = less cytotoxic
Conditions: 48 h
Method in brief: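 NOMO1, SEM and P12-Ichikawa leukemia cells spent at least four passages adapting to each medium before use. They were seeded at 500 cells/well (NOMO1, SEM) or 1000 cells/well (P12-Ichikawa) in 5 μl in 1536-well plates and pin-dosed with library compounds in DMSO at 11 threefold steps from 47 μM down to 0.79 nM. After 48 h at 37°C, CellTiter-Glo One luminescence was read. Viability is reported as a percentage of the DMSO wells on each plate, with cell-free wells as background.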

[1] = HPLM + 10% dialyzed FBS, 0.000781 µM
[2] = HPLM + 10% dialyzed FBS, 0.00234 µM
[3] = HPLM + 10% dialyzed FBS, 0.00702 µM
[4] = HPLM + 10% dialyzed FBS, 0.0211 µM
[5] = HPLM + 10% dialyzed FBS, 0.0632 µM
[6] = HPLM + 10% dialyzed FBS, 0.19 µM
[7] = HPLM + 10% dialyzed FBS, 0.569 µM
[8] = HPLM + 10% dialyzed FBS, 1.71 µM
[9] = HPLM + 10% dialyzed FBS, 5.12 µM
[10] = HPLM + 10% dialyzed FBS, 15.4 µM
[11] = HPLM + 10% dialyzed FBS, 46.1 µM
[12] = RPMI 5 mM glucose + 10% FBS, 0.000781 µM
[13] = RPMI 5 mM glucose + 10% FBS, 0.00234 µM
[14] = RPMI 5 mM glucose + 10% FBS, 0.00702 µM
[15] = RPMI 5 mM glucose + 10% FBS, 0.0211 µM
[16] = RPMI 5 mM glucose + 10% FBS, 0.0632 µM
[17] = RPMI 5 mM glucose + 10% FBS, 0.19 µM
[18] = RPMI 5 mM glucose + 10% FBS, 0.569 µM
[19] = RPMI 5 mM glucose + 10% FBS, 1.71 µM
[20] = RPMI 5 mM glucose + 10% FBS, 5.12 µM
[21] = RPMI 5 mM glucose + 10% FBS, 15.4 µM
[22] = RPMI 5 mM glucose + 10% FBS, 46.1 µM
[23] = RPMI 5 mM glucose + 10% dialyzed FBS, 0.000781 µM
[24] = RPMI 5 mM glucose + 10% dialyzed FBS, 0.00234 µM
[25] = RPMI 5 mM glucose + 10% dialyzed FBS, 0.00702 µM
[26] = RPMI 5 mM glucose + 10% dialyzed FBS, 0.0211 µM
[27] = RPMI 5 mM glucose + 10% dialyzed FBS, 0.0632 µM
[28] = RPMI 5 mM glucose + 10% dialyzed FBS, 0.19 µM
[29] = RPMI 5 mM glucose + 10% dialyzed FBS, 0.569 µM
[30] = RPMI 5 mM glucose + 10% dialyzed FBS, 1.71 µM
[31] = RPMI 5 mM glucose + 10% dialyzed FBS, 5.12 µM
[32] = RPMI 5 mM glucose + 10% dialyzed FBS, 15.4 µM
[33] = RPMI 5 mM glucose + 10% dialyzed FBS, 46.1 µM

Row | SMILES | cell viability [1] [%] | cell viability [2] [%] | cell viability [3] [%] | cell viability [4] [%] | cell viability [5] [%] | cell viability [6] [%] | cell viability [7] [%] | cell viability [8] [%] | cell viability [9] [%] | cell viability [10] [%] | cell viability [11] [%] | cell viability [12] [%] | cell viability [13] [%] | cell viability [14] [%] | cell viability [15] [%] | cell viability [16] [%] | cell viability [17] [%] | cell viability [18] [%] | cell viability [19] [%] | cell viability [20] [%] | cell viability [21] [%] | cell viability [22] [%] | cell viability [23] [%] | cell viability [24] [%] | cell viability [25] [%] | cell viability [26] [%] | cell viability [27] [%] | cell viability [28] [%] | cell viability [29] [%] | cell viability [30] [%] | cell viability [31] [%] | cell viability [32] [%] | cell viability [33] [%]
1 | CC(=O)OCC(=O)[C@@]12OC(C)(C)O[C@@H]1C[C@H]3[C@@H]4C[C@H](F)C/5=C/C(=O)/C=C\[C@]5(C)[C@@]4(F)[C@@H](O)C[C@]23C | 107 | 119 | 111 | 117 | 110 | 94.7 | 76.7 | 74.5 | 71.6 | 74.5 | 72.4 | 106 | 128 | 119 | 115 | 115 | 84.2 | 68.5 | 70.8 | 62.1 | 64.2 | 67.5 | 117 | 107 | 114 | 107 | 87.8 | 84.4 | 62.8 | 57.6 | 55.1 | 54.7 | 56.9
2 | O=C(C1CC1)N1CC[C@@H](Cn2c(-c3ccc(-c4ccc5occc5c4)cc3)nc3cnccc32)C1 | 101 | 117 | 108 | 114 | 117 | 126 | 122 | 127 | 124 | 119 | 111 | 92.7 | 117 | 120 | 121 | 131 | 119 | 124 | 132 | 111 | 124 | 83.5 | 106 | 112 | 102 | 120 | 116 | 128 | 121 | 128 | 123 | 119 | 93
3 | COc1cccc2c(NCc3ccccc3)nc(-n3c(N)nc4ccccc43)nc12 | 99 | 103 | 108 | 107 | 108 | 112 | 109 | 111 | 94.3 | 58.3 | 8.25 | 94.8 | 108 | 95 | 115 | 111 | 103 | 111 | 110 | 114 | 63.7 | 6.11 | 106 | 100 | 111 | 99.6 | 112 | 114 | 119 | 111 | 102 | 76.6 | 10.1
4 | C[C@H]1[C@H](O)O[C@@H]2O[C@@]3(C)CC[C@H]4[C@H](C)CC[C@@H]1[C@@]24OO3 | 91.4 | 95 | 99.8 | 98.6 | 91.4 | 97.9 | 101 | 87.6 | 54.7 | 29.4 | 22.5 | 90.1 | 92.9 | 83.4 | 94 | 89.9 | 91.2 | 87.9 | 70.4 | 33.9 | 16.8 | 14.6 | 82.7 | 90.6 | 87.1 | 87.7 | 87.2 | 87 | 84 | 61.6 | 36.5 | 26.2 | 24.3
5 | C=CC(=O)Nc1cccc(Oc2nc(Nc3ccc(N4CCN(C)CC4)cc3OC)ncc2Cl)c1 | 75 | 79.3 | 78.4 | 84.9 | 84.7 | 86.3 | 83 | 79.6 | 76.5 | 70.6 | 52.2 | 68 | 76 | 76.1 | 79.5 | 80.9 | 83.7 | 80.1 | 82.1 | 66 | 58.3 | 50.3 | 73 | 89.4 | 82.8 | 79.9 | 81.6 | 80.9 | 74.6 | 83.3 | 70.6 | 64.7 | 49.5
6 | COc1ccc(CC2c3cc(OC)c(OC)cc3CC[N+]2(C)CCC(=O)OCCCCCOC(=O)CC[N+]2(C)CCc3cc(OC)c(OC)cc3C2Cc2ccc(OC)c(OC)c2)cc1OC (stereo unspecified) | 86.1 | 86.6 | 86.3 | 97.2 | 90.5 | 96.3 | 92 | 96.6 | 97.8 | 95.1 | 86.7 | 82.7 | 86.4 | 91.6 | 92.1 | 92.4 | 95.6 | 99.3 | 99.2 | 85.3 | 96.3 | 83.7 | 80.3 | 83.5 | 87.3 | 91.4 | 93.1 | 96.6 | 93.2 | 83.1 | 86.2 | 95.1 | 90.7
7 | FC(F)(F)C1=CC=C2C(SCCCCCO\C3=C\O\C(CN4CCOCC4)=C/C3=O)=CC=NC2=C1 | 107 | 122 | 123 | 120 | 129 | 126 | 132 | 123 | 123 | 107 | 88.1 | 110 | 119 | 109 | 114 | 113 | 109 | 125 | 121 | 111 | 94.4 | 66 | 112 | 118 | 113 | 116 | 130 | 116 | 127 | 119 | 115 | 104 | 78
